Measurements taken from patent US20120128628A1, “COMBINATION OF A NUCLEOSIDE POLYMERASE INHIBITOR WITH A MACROCYCLIC PROTEASE INHIBITOR AND USE THEREOF IN THE TREATMENT OF HEPATITIS C, LIVER FIBROSIS AND IMPAIRED LIVER FUNCTION (as amended)” (priority 2009, published 2012).

Columns and labels:
HCV replication = settings: cited from earlier work
[1] = prodrug compared to Compound 1; cited from earlier work
[2] = tested on: chronic hepatitis C genotype 1; assay: HCV RNA viral load determination (COBAS AmpilPrep/COBAS Taqman HCV Test RUO) in a dose ranging study in patients; type: in vivo, Hepatitis C virus; settings: monotherapy 750 mg, bid; after 7 days of treatment
Experimental: A randomized, double-blind, placebo controlled, dose ranging study of Compound 1a and Compound 2 in adult patients with chronic hepatitis C genotype 1 was conducted. Approximately 54 treatment naïve males and females between 18 and 65 years of age (inclusive) with genotype 1 HCV infection who had not previously been treated with an interferon or investigational HCV therapeutic agent were enrolled. Approximately an additional 20 treatment patients who had failed treatment with the current standard of care (null, partial responders and relapsers) were enrolled. […] Subjects with liver cirrhosis or incomplete/transition to cirrhosis, or other forms of liver disease, anemia, HIV or HBV infection, hepatocellular carcinoma, cardiac disease or renal disease were excluded from this particular protocol, as well as pregnant or lactating women, women of childbearing potential, and male partners of women who are pregnant or lactating.
Seven groups, Groups I, II, III, IV, V, VI and VII, of subjects were studied. Blood samples were collected at time points to determine pharmacokinetics parameters, including Tmax, Cmax, Kel, T1/2, AUC, CL/F, Vd/F and accumulation ratio.
The specifics of Groups I, II, III, IV, V, VI and VII are shown in Table 1 below and pictorially in FIGS. 2 and 3. Group I included two arms with 8 subjects in Arm 1 and 8 subjects in Arm 2. […]

Molecule	inhibiting HCV replication (HCV replication)	permeability [1]	plasma exposure [1]	mean log change from baseline of HCV RNA viral load [2]	anti-viral efficacy (HCV replication; prodrug compared to Compound 1)
C[C@@]1(F)[C@H](O)[C@@H](CO)O[C@H]1n1ccc(N)nc1=O [Compound 1, β-D-2′-deoxy-2′-fluoro-2′-C-methylcytidine]	effective in inhibiting HCV replication				
diisobutyl ester prodrug of β-D-2′-deoxy-2′-fluoro-2′-C-methylcytidine [Compound 1a]		increased permeability	increased plasma exposure	−1.3 log10 IU/mL	improved anti-viral efficacy
CC(C)(C)OC(=O)N[C@H]1CCCCCC=C[C@@H]2C[C@@]2(C(=O)NS(=O)(=O)C2CC2)NC(=O)[C@@H]2C[C@@H](OC(=O)N3Cc4cccc(F)c4C3)CN2C1=O [Compound 2, (1S,4R,6S,14S,18R)-4-Fluoro-1,3-dihydro-isoindole-2-carboxylic acid 14-tert-butoxycarbonylamino-4-cyclopropanesulfonylaminocarbonyl-2,15-dioxo-3,16-diaza-tricyclo[14.3.0.04,6]nonadec-7-en-18-yl ester]	effective in inhibiting HCV replication				
